SMILES strings stand for the structures. Positions of bridges follow the written chain, without caps; N, C: chain ends. Non-standard residues stand in square brackets, D forms with d. Residues, ends and D or L forms follow the SMILES beside them. 2Nal = N[C@@H](Cc1ccc2ccccc2c1)C(=O)O

For test [1], the target named is T1, Melanocyte-stimulating hormone receptor (Homo sapiens, UniProt Q01726). Nature of the test: Agonist activity at human MC1R expressed in HEK293 cells assessed as increase in intracellular cAMP accumulation. It is filed as functional, cell-based. On the technique in general: cAMP levels reflect the balance of adenylyl cyclase and phosphodiesterase activity.
Target sequence in this assay (Q01726 whole entry): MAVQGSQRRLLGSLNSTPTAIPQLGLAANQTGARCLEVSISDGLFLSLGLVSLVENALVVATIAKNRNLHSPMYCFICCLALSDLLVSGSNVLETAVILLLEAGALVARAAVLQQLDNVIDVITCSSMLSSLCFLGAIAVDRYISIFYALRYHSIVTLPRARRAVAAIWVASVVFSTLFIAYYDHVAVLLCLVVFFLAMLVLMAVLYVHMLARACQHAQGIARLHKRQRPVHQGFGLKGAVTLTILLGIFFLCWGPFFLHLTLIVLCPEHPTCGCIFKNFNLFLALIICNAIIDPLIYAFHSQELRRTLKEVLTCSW
Test [2] concerns the target T2, Melanocortin receptor 3 (Homo sapiens, UniProt P41968). Description: Agonist activity at human MC3R expressed in HEK293 cells assessed as intracellular cAMP accumulation. In kind it is functional, cell-based.
The target in test [3] is T3, Melanocortin receptor 4 (Homo sapiens, UniProt P32245). Description: Agonist activity at human MC4R expressed in HEK293 cells assessed as intracellular cAMP accumulation. It is filed as functional, cell-based.
Test [4] has as its target T3, Melanocortin receptor 4. Description: Displacement of [125I]-NDP-alpha-MSH from human MC4R expressed in HEK293 cells after 40 mins by Wallac 1470 gamma counting. It is filed as cell-based.
For test [5], the target named is T4, Melanocortin receptor 5 (Homo sapiens, UniProt P33032). Nature of the test: Displacement of [125I]-NDP-alpha-MSH from human MC5R expressed in HEK293 cells after 40 mins by Wallac 1470 gamma counting. In kind it is cell-based. (In general: Loss of bound radioactivity is the signal in a displacement assay; it reports binding, not function.)
In test [6] the target is T3, Melanocortin receptor 4. Nature of the test: Agonist activity at human MC4R expressed in HEK293 cells assessed as increase in intracellular cAMP level at 10 uM after 3 mins by luminescence counter relative to Ac-Nle-c[Asp-His-D-Phe-Arg-Trp-Lys]-NH2. It is filed as functional, cell-based.
Test [7] concerns the target T4, Melanocortin receptor 5. Description: Agonist activity at human MC5R expressed in HEK293 cells assessed as increase in intracellular cAMP level at 10 uM after 3 mins by luminescence counter relative to Ac-Nle-c[Asp-His-D-Phe-Arg-Trp-Lys]-NH2. In kind it is functional, cell-based.
In test [8] the target is T2, Melanocortin receptor 3. Description: Displacement of [125I]-NDP-alpha-MSH from human MC3R expressed in HEK293 cells after 40 mins by Wallac 1470 gamma counting. In kind it is cell-based.
The target in test [9] is T2, Melanocortin receptor 3. Description: Agonist activity at human MC3R expressed in HEK293 cells assessed as increase in intracellular cAMP level at 10 uM after 3 mins by luminescence counter relative to Ac-Nle-c[Asp-His-D-Phe-Arg-Trp-Lys]-NH2. It is filed as functional, cell-based.
Test [10] deals with T4, Melanocortin receptor 5. Description: Agonist activity at human MC5R expressed in HEK293 cells assessed as intracellular cAMP accumulation. It is filed as functional, cell-based.
For test [11], the target named is T1, Melanocyte-stimulating hormone receptor. Description: Displacement of [125I]-NDP-alpha-MSH from human MC1R expressed in HEK293 cells at 10 uM after 40 mins by Wallac 1470 gamma counting relative to Ac-Nle-c[Asp-His-D-Phe-Arg-Trp-Lys]-NH2. It is filed as cell-based.
Target sequence in this assay (Q01726 whole entry, looked up): as the sequence (Q01726 whole entry) above
The target is the same in test [12]. Nature of the test: Displacement of [125I]-NDP-alpha-MSH from human MC1R expressed in HEK293 cells after 40 mins by Wallac 1470 gamma counting. In kind it is cell-based.
Target sequence in this assay (Q01726 whole entry): as above
Test [13] has the same target. Description: Agonist activity at human MC1R expressed in HEK293 cells assessed as increase in intracellular cAMP level at 10 uM after 3 mins by luminescence counter relative to Ac-Nle-c[Asp-His-D-Phe-Arg-Trp-Lys]-NH2. In kind it is functional, cell-based.
Target sequence in this assay (Q01726 whole entry, looked up): as the sequence (Q01726 whole entry) above
The target of test [14] is T2, Melanocortin receptor 3. Description: Displacement of [125I]-NDP-alpha-MSH from human MC3R expressed in HEK293 cells at 10 uM after 40 mins by Wallac 1470 gamma counting relative to Ac-Nle-c[Asp-His-D-Phe-Arg-Trp-Lys]-NH2. In kind it is cell-based.

T4 sequence (P33032 whole entry): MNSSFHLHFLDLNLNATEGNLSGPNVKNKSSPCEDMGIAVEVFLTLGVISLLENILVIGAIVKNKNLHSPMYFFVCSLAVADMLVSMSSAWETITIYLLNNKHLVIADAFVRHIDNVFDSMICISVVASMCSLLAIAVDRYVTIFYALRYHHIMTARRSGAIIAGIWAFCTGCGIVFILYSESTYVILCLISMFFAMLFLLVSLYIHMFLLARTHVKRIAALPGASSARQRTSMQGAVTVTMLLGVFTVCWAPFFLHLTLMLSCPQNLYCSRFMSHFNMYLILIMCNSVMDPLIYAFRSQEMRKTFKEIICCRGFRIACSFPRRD
T2 sequence (P41968 whole entry): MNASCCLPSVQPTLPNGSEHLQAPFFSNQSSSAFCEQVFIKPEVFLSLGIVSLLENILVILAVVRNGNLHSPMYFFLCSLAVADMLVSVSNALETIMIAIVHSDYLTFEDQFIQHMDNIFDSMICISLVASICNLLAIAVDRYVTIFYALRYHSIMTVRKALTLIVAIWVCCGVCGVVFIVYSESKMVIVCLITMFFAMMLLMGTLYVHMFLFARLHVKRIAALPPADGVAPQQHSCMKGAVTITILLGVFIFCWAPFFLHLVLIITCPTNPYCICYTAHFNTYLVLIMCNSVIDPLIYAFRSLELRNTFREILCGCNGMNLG
T3 sequence (P32245 whole entry): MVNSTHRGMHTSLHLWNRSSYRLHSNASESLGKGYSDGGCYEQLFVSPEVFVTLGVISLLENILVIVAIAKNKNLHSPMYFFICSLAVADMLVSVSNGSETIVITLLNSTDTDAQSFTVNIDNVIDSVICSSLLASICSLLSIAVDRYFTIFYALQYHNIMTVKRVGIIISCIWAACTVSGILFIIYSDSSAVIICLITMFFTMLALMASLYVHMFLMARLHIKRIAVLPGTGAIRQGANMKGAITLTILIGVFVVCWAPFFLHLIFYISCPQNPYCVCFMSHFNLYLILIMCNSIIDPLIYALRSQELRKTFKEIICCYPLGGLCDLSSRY

Regarding `C[C@@H]1NC(=O)[C@@H](Cc2cnc[nH]2)NC(=O)[C@H](Cc2ccccc2)NC(=O)[C@H](Cc2c[nH]c3ccccc23)NC(=O)[C@H](CCCNC(=N)N)NC(=O)CC[C@@H](C(N)=O)NC(=O)[C@H](Cc2ccccc2)NC1=O` (RWF[dH]AFE-NH2; lactam N-7), the EC50 result (in test [1]; at Melanocortin receptor 3 [2]; on Melanocortin receptor 4 [3]; on Melanocortin receptor 5 [10]) was “Not Active” throughout. Further, the IC50 result on Melanocortin receptor 4 [4], on Melanocortin receptor 5 [5] and at Melanocortin receptor 3 [8] was “Not Active” throughout. The Activity at Melanocortin receptor 4 [6], on Melanocortin receptor 5 [7] and at Melanocortin receptor 3 [9] was 0% in each case.

With `C[C@@H]1NC(=O)[C@H](CC(N)=O)NC(=O)[C@H](Cc2ccccc2)NC(=O)[C@H](Cc2c[nH]c3ccccc23)NC(=O)[C@H](CCCNC(=N)N)NC(=O)CC[C@@H](C(N)=O)NC(=O)[C@H](Cc2ccccc2)NC1=O` (RWFNAFE-NH2; lactam N-7), the EC50 entry (in [1]; at Melanocortin receptor 3 [2]; at Melanocortin receptor 4 [3]; on Melanocortin receptor 5 [10]) was “Not Active” throughout. Besides, the IC50 entry (on Melanocortin receptor 4 [4]; on Melanocortin receptor 5 [5]; on Melanocortin receptor 3 [8]; in [12]) was “Not Active” in each case. Moreover, the Activity (on Melanocortin receptor 4 [6]; in [11]; at Melanocortin receptor 5 [7]; at Melanocortin receptor 3 [9]) was 0% throughout.

`C[C@@H]1NC(=O)[C@@H](CCC(N)=O)NC(=O)[C@H](Cc2ccc3ccccc3c2)NC(=O)[C@H](Cc2c[nH]c3ccccc23)NC(=O)[C@H](CCCNC(=N)N)NC(=O)CC[C@@H](C(N)=O)NC(=O)[C@H](Cc2ccccc2)NC1=O` (RW[2Nal][dQ]AFE-NH2; lactam N-7): the EC50 result (in test [1]; at Melanocortin receptor 3 [2]; on Melanocortin receptor 4 [3]; at Melanocortin receptor 5 [10]) was “Not Active” throughout. In addition, the IC50 result (at Melanocortin receptor 4 [4]; at Melanocortin receptor 5 [5]; at Melanocortin receptor 3 [8]; in [12]) was “Not Active” each time. Moreover, the Activity (on Melanocortin receptor 4 [6]; in test [11]; on Melanocortin receptor 5 [7]; at Melanocortin receptor 3 [9]) was 0% in each case.

As to `CC(=O)N[C@H]1CC(=O)NCCCC[C@@H](C(N)=O)NC(=O)[C@@H](CCC(N)=O)NC(=O)[C@H](Cc2ccc3ccccc3c2)NC(=O)[C@H](Cc2c[nH]c3ccccc23)NC(=O)[C@H](CCCNC(=N)N)NC1=O` (Ac-DRW[2Nal][dQ]K-NH2; lactam 1-6), the Activity (in [13]; on Melanocortin receptor 3 [14]; on Melanocortin receptor 4 [6]; at Melanocortin receptor 5 [7]) was 0% in each case. Moreover, the EC50 result (in [1]; at Melanocortin receptor 3 [2]; at Melanocortin receptor 4 [3]; on Melanocortin receptor 5 [10]) was “Not Active” throughout. For the same compound, the IC50 entry (on Melanocortin receptor 4 [4]; at Melanocortin receptor 5 [5]; at Melanocortin receptor 3 [8]; in test [12]) was “Not Active” in each case.

On to `C[C@@H]1NC(=O)[C@@H](CC(N)=O)NC(=O)[C@H](Cc2ccccc2)NC(=O)[C@H](Cc2c[nH]c3ccccc23)NC(=O)[C@H](CCCNC(=N)N)NC(=O)CC[C@@H](C(N)=O)NC(=O)[C@H](Cc2ccccc2)NC1=O` (RWF[dN]AFE-NH2; lactam N-7), for which the Activity (at Melanocortin receptor 3 [14]; at Melanocortin receptor 4 [6]; in test [11]; at Melanocortin receptor 5 [7]) was 0% throughout. For the same compound, the EC50 entry (in [1]; at Melanocortin receptor 3 [2]; at Melanocortin receptor 4 [3]; on Melanocortin receptor 5 [10]) was “Not Active” throughout. In addition, the IC50 result (on Melanocortin receptor 4 [4]; at Melanocortin receptor 5 [5]; on Melanocortin receptor 3 [8]; in [12]) was “Not Active” each time.

For the compound `C[C@@H]1NC(=O)[C@H](CC(N)=O)NC(=O)[C@@H](Cc2ccccc2)NC(=O)[C@H](Cc2c[nH]c3ccccc23)NC(=O)[C@H](CCCNC(=N)N)NC(=O)CC[C@@H](C(N)=O)NC(=O)[C@H](Cc2ccccc2)NC1=O` (RW[dF]NAFE-NH2; lactam N-7), the EC50 result (in [1]; on Melanocortin receptor 3 [2]; on Melanocortin receptor 4 [3]; on Melanocortin receptor 5 [10]) was “Not Active” each time. Also, the IC50 result (at Melanocortin receptor 4 [4]; on Melanocortin receptor 5 [5]; on Melanocortin receptor 3 [8]; in [12]) was “Not Active” each time. Also, the Activity (on Melanocortin receptor 4 [6]; in test [11]; on Melanocortin receptor 5 [7]; on Melanocortin receptor 3 [9]) was 0% each time.

For the compound `CC(=O)N[C@H]1CC(=O)NCCCC[C@@H](C(N)=O)NC(=O)[C@@H](CC(N)=O)NC(=O)[C@H](Cc2ccc3ccccc3c2)NC(=O)[C@H](Cc2c[nH]c3ccccc23)NC(=O)[C@H](CCCNC(=N)N)NC1=O` (Ac-DRW[2Nal][dN]K-NH2; lactam 1-6), the Activity (in test [13]; on Melanocortin receptor 3 [14]; on Melanocortin receptor 4 [6]; at Melanocortin receptor 5 [7]) was 0% each time. For the same compound, the EC50 result (in test [1]; on Melanocortin receptor 3 [2]; at Melanocortin receptor 4 [3]; at Melanocortin receptor 5 [10]) was “Not Active” in each case. Moreover, the IC50 entry (on Melanocortin receptor 4 [4]; at Melanocortin receptor 5 [5]; at Melanocortin receptor 3 [8]; in test [12]) was “Not Active” each time.

As to `C[C@@H]1NC(=O)[C@H](CCCNC(=N)N)NC(=O)[C@@H](Cc2ccccc2)NC(=O)[C@H](Cc2c[nH]c3ccccc23)NC(=O)[C@H](CCCNC(=N)N)NC(=O)CC[C@@H](C(N)=O)NC(=O)[C@H](Cc2ccccc2)NC1=O`, the EC50 entry at Melanocortin receptor 3 [2], at Melanocortin receptor 4 [3] and on Melanocortin receptor 5 [10] was “Not Active” each time.

For `C[C@@H]1NC(=O)[C@@H](CCCNC(=N)N)NC(=O)[C@H](Cc2ccccc2)NC(=O)[C@H](Cc2c[nH]c3ccccc23)NC(=O)[C@H](CCCNC(=N)N)NC(=O)CC[C@@H](C(N)=O)NC(=O)[C@H](Cc2ccccc2)NC1=O`, the results for the Activity at Melanocortin receptor 3 [14] and on Melanocortin receptor 4 [6] were 30% and 0%, respectively. Also, the EC50 result (in test [1]; at Melanocortin receptor 3 [2]; on Melanocortin receptor 4 [3]; at Melanocortin receptor 5 [10]) was “Not Active” each time. Besides, the IC50 entry at Melanocortin receptor 4 [4] is “Not Active”.

The values above are taken from ChEMBL document CHEMBL1773033, “Cyclic lactam hybrid α-MSH/Agouti-related protein (AGRP) analogues with nanomolar range binding affinities at the human melanocortin receptors” (Bioorg Med Chem Lett, 2011).
